Data published in ChEMBL document CHEMBL1122957, “Artificial siderophores. 2. Syntheses of trihydroxamate analogues of rhodotorulic acid and their biological iron transport capabilities in Escherichia coli” (1985).

What was measured:
Assay type in all cases: functional, organism-based
Escherichia coli [1] = assay: The ability of the artificial siderophores to support the growth of Escherichia coli strain AN 193 was evaluated at the concentration of 50 and 500 uM; No growth around the disc
Escherichia coli [2] = assay: The ability of the artificial siderophores to support the growth of Escherichia coli strain RWB7 was evaluated at the concentration of 50 and 500 uM; No growth around the disc
Escherichia coli [3] = assay: The ability of the artificial siderophores to support the growth of Escherichia coli strain BN 3306 was evaluated at the concentration of 50 uM; No growth around the disc
Escherichia coli [4] = assay: The ability of the artificial siderophores to support the growth of Escherichia coli strain RWB7 was evaluated at the concentration of 50 uM; No growth around the disc
Escherichia coli [5] = assay: The ability of the artificial siderophores to support the growth of Escherichia coli strain BN 3300 was evaluated at the concentration of 50 uM; No growth around the disc
Escherichia coli [6] = assay: The ability of the artificial siderophores to support the growth of Escherichia coli strain BN 3306 was evaluated at the concentration of 50 and 500 uM; No growth around the disc
Escherichia coli [7] = assay: The ability of the artificial siderophores to support the growth of Escherichia coli strain BN 3300 was evaluated at the concentration of 50 and 500 uM; No growth around the disc
Escherichia coli [8] = assay: The ability of the artificial siderophores to support the growth of Escherichia coli strain AN 193 was evaluated at the concentration of 50 uM; No growth around the disc
Escherichia coli [9] = assay: The ability of the artificial siderophores to support the growth of Escherichia coli strain RW 193 was evaluated at the concentration of 50 and 500 uM; No growth around the disc
Escherichia coli [10] = assay: The ability of the artificial siderophores to support the growth of Escherichia coli strain RWB7 was evaluated at the concentration of 25 uM; No growth around the disc

CC(=O)N(O)CCCCCn1c(=O)n(CCCCCN(O)C(C)=O)c(=O)n(CCCCCN(O)C(C)=O)c1=O
Inhibitory diameter (Escherichia coli [1]): Not toxic
Inhibitory diameter (Escherichia coli [2]): Not toxic

CC(=O)N(O)CCC[C@@H]1NC(=O)[C@H](CCCN(O)C(C)=O)NC1=O
Inhibitory diameter (Escherichia coli [3]): Not toxic
Inhibitory diameter (Escherichia coli [4]): Not toxic
Inhibitory diameter (Escherichia coli [5]): Not toxic

CN(O)C(=O)CCCCCn1c(=O)n(CCCCCC(=O)N(C)O)c(=O)n(CCCCCC(=O)N(C)O)c1=O
Inhibitory diameter (Escherichia coli [6]): Not toxic
Inhibitory diameter (Escherichia coli [1]): Not toxic
Inhibitory diameter (Escherichia coli [7]): Not toxic
Inhibitory diameter (Escherichia coli [2]): Not toxic

FERRICHROME
Inhibitory diameter (Escherichia coli [8]): Not toxic
Inhibitory diameter (Escherichia coli [3]): Not toxic
Inhibitory diameter (Escherichia coli [4]): Not toxic
Inhibitory diameter (Escherichia coli [5]): Not toxic

CC(=O)N(O)CCCCn1c(=O)n(CCCCN(O)C(C)=O)c(=O)n(CCCCN(O)C(C)=O)c1=O
Inhibitory diameter (Escherichia coli [2]): Not toxic

CN(O)C(=O)CCCCCn1c(=O)[nH]c(=O)n(CCCCCC(=O)N(C)O)c1=O
Inhibitory diameter (Escherichia coli [6]): Not toxic
Inhibitory diameter (Escherichia coli [1]): Not toxic
Inhibitory diameter (Escherichia coli [7]): Not toxic
Inhibitory diameter (Escherichia coli [9]): Not toxic
Inhibitory diameter (Escherichia coli [2]): Not toxic

CC(=O)N(O)CCCn1c(=O)n(CCCN(O)C(C)=O)c(=O)n(CCCN(O)C(C)=O)c1=O
Inhibitory diameter (Escherichia coli [1]): Not toxic
Inhibitory diameter (Escherichia coli [2]): Not toxic

O=C(N[C@H]1COC(=O)[C@@H](NC(=O)c2cccc(O)c2O)COC(=O)[C@@H](NC(=O)c2cccc(O)c2O)COC1=O)c1cccc(O)c1O
Inhibitory diameter (Escherichia coli [10]): Not toxic
